According to patent US20100056458A1, “Peptides Inhibiting Angiotensin-Converting Enzyme” (CAMPINA NEDERLAND HOLDING B.V., priority 2005, published 2010):

System: angiotensin-converting enzyme (ACE)
Assay: HPLC with mass spectrometry and on-line bioassay unit for assessing ACE-inhibiting activity
Format: biochemical
Description: The identity and the activity of the peptides and their mixtures can be determined by known methods, e.g. as described by Van Elswijk et al. J Chromatography A, 1020 (2003) 45-58, involving liquid chromatography coupled to mass spectroscopy, and on-line bioassay. […] The IC50 can be determined in vitro as described by V. Vermeirsen, J. van Camp & J. Verstraete, “Optimisation and validation of an angiotensin-converting enzyme inhibition assay for the screening of bioactive peptides”. J. Biochem. Biophys. Methods 51, 75-87 (2002).
The peptides obtained according to example I, were analysed using HPLC as described by Van Elswijk et al. J Chromatography A 1020 (2003) 45-58. The HPLC eluate was divided over a mass spectrometry for determining the peptide structure and a bioassay unit for assessing the ACE-inhibiting activity. The following peptides were identified: AVP (SEQ ID No. 25), LV (SEQ ID No. 5) and IV (SEQ ID No. 1). Another batch of the same caseinate contained the peptides KIHP (SEQ ID No. 28), KK (SEQ ID No. 73), VPYPQR (SEQ ID No. 20), and KYKVPQ (SEQ ID No. 91). Starting with other casein sources the peptides VLGPV (SEQ ID No. 10), VLPVPQK (SEQ ID No. 75), VPYPQ (SEQ ID No. 21), KK (SEQ ID No. 73), VNELSK (SEQ ID No. 76), and […] (SEQ ID No. 33) were found.
Similarly the product from example II was analysed and contained IAEKT (SEQ ID No. 57), LDIQK (SEQ ID No. 74) and LKALP (SEQ ID No. 64). Starting from other whey protein sources WPC 60 or whey protein isolate, VLGPV (SEQ ID No. 10), VLPVPQ (SEQ ID No. 18), MKGLDI (SEQ ID No. 41), LR (SEQ ID No. 44), MHIRLS (SEQ ID No. 48), IIA (SEQ ID No. 56) were identified.

[1] = product from example II (WPC 80 hydrolysate)
[2] = other whey protein sources WPC 60 or whey protein isolate
[3] = another batch of the same caseinate

| identified as ACE-inhibiting peptide (other casein sources) | identified as ACE-inhibiting peptide [2] | Substance | also measured |
| --- | --- | --- | --- |
|  | identified | MHIRLS (listed as Bos taurus) |  |
| found | identified | VLGPV (listed as Bos taurus) [β-casein peptide] |  |

More lines, now with the values behind:

| Substance | identified as ACE-inhibiting peptide (other casein sources) | identified as ACE-inhibiting peptide [2] | also measured |
| --- | --- | --- | --- |
| AVP |  |  | identified as ACE-inhibiting peptide (hydrolysate of example I (calcium caseinate)): identified |
| FFVAPFPEVFG (listed as Bos taurus) | found |  |  |
| IAEKT (listed as Bos taurus) [β-lactoglobulin-derived peptide] |  |  | identified as ACE-inhibiting peptide [1]: contained |
| IIA (listed as Bos taurus) |  | identified |  |
| KIHP (listed as Bos taurus) [β-casein-derived peptide] |  |  | identified as ACE-inhibiting peptide [3]: contained |
| KYKVPQ (listed as Bos taurus) |  |  | identified as ACE-inhibiting peptide [3]: contained |
| LDIQK (listed as Bos taurus) [β-lactoglobulin-derived peptide] |  |  | identified as ACE-inhibiting peptide [1]: contained |
| LKALP (listed as Bos taurus) [β-lactoglobulin-derived peptide] |  |  | identified as ACE-inhibiting peptide [1]: contained |
| MKGLDI (listed as Bos taurus) [β-lactoglobulin-derived peptide] |  | identified |  |
| VLPVPQ (listed as Bos taurus) |  | identified |  |
| VLPVPQK (listed as Bos taurus) | found |  |  |
| VNELSK (listed as Bos taurus) | found |  |  |
| VPYPQ (listed as Bos taurus) [β-casein-derived peptide] | found |  |  |
| VPYPQR (listed as Bos taurus) [β-casein-derived peptide] |  |  | identified as ACE-inhibiting peptide [3]: contained |
